Reference: patent publication US11566231B2, “Physiology and pathophysiology of human gut: intestine-on-chip” (EMULATE, INC., priority 2017, dated 2023)

How the values were obtained:
[1] = tested on: IL-8; experiment: LPS-induced IL-8 production in Intestine-Chip; format: cell-based, human; conditions: LPS 100 μg/ml; Rifaximin 50 μg/ml; without stretch
[2] = tested on: human PXR; conditions: human cells; cited from earlier work

CO[C@H]1/C=C/O[C@@]2(C)Oc3c(C)c(O)c4c(O)c(c5c(nc6cc(C)ccn65)c4c3C2=O)NC(=O)/C(C)=C\C=C\[C@H](C)[C@H](O)[C@@H](C)[C@@H](O)[C@@H](C)[C@H](OC(C)=O)[C@@H]1C [Rifaximin]
IL-8 [1]: decrease in IL-8 | expression of PXR-regulated genes, including CYP3A4 and MDR1 [2]: enhanced
